This is an account of results in ChEMBL document CHEMBL2074213, “In vitro activities of native and designed peptide antibiotics against drug sensitive and resistant tumor cell lines” (Peptides, 2003).

Bridge positions count the residues as written; N and C are the ends. Peptide text beside a SMILES is read from it.

The data set addresses ATP-dependent translocase ABCB1 (Homo sapiens, UniProt P08183). Kind of data set: TP_TRANSPORTER: drug resistance in MCF-7/Dox cells. In kind it is functional, cell-based.

Chain of ATP-dependent translocase ABCB1 (P08183 whole entry): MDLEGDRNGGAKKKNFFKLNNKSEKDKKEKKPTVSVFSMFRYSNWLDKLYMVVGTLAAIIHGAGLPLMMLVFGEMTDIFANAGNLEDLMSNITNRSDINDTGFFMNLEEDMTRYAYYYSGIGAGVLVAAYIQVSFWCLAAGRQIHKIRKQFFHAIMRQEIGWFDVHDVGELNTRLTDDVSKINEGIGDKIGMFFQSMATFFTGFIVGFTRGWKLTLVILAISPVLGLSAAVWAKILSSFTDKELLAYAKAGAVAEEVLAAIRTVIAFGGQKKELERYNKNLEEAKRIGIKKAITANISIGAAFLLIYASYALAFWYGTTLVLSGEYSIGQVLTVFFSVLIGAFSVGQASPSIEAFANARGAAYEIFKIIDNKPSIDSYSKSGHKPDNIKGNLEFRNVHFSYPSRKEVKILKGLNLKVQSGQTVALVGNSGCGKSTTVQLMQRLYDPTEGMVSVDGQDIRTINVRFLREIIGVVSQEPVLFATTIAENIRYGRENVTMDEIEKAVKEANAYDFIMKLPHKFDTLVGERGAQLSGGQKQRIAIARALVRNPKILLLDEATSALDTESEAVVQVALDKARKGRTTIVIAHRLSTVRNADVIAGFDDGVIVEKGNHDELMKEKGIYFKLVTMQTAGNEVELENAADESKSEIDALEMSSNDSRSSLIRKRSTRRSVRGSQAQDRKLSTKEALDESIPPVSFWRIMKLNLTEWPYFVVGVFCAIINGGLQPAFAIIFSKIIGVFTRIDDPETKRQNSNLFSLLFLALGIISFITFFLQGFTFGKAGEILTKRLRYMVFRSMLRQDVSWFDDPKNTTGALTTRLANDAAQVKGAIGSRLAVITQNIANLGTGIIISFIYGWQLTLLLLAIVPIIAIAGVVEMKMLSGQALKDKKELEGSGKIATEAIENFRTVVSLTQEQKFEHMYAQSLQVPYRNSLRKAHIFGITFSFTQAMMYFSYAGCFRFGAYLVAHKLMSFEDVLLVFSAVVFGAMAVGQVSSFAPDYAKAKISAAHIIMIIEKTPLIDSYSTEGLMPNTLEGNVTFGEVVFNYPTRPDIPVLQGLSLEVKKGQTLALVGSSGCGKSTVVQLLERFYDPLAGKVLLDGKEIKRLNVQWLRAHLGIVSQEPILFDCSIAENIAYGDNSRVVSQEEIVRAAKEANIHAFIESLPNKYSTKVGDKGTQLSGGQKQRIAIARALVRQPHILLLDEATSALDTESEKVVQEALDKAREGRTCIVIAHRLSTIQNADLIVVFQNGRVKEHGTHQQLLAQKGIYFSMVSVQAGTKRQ

Turning to `COc1cccc2c1C(=O)c1c(O)c3c(c(O)c1C2=O)C[C@@](O)(C(=O)CO)C[C@@H]3O[C@H]1C[C@H](N)[C@H](O)[C@H](C)O1` [DOXORUBICIN], the Activity entry is “substrate [+]”.

As to `CC[C@H](C)[C@@H]1NC(=O)[C@H](CCCCN)NC(=O)[C@@H](NC(=O)[C@@H](NC(=O)[C@@H](NC(=O)[C@@H](NC(=O)[C@@H]2CCCN2C(=O)[C@H](CC(C)C)NC(=O)[C@H](Cc2ccccc2)NC(=O)[C@H](CC(N)=O)NC(=O)[C@H](C)NC(=O)[C@H](C)NC(=O)[C@H](CC(C)C)NC(=O)CNC(=O)[C@H](C)NC(=O)[C@H](CC(C)C)NC(=O)[C@H](CC(C)C)NC(=O)[C@@H]2CCCN2C(=O)[C@H](CC(C)C)NC(=O)[C@@H](N)Cc2ccccc2)[C@@H](C)O)[C@@H](C)CC)[C@@H](C)CC)CSSC[C@@H](C(=O)O)NC(=O)[C@H](CCCCN)NC(=O)[C@H](Cc2ccc(O)cc2)NC(=O)[C@H](CO)NC1=O` [GAEGURIN 6] (H-FLPLLAGLAANFLPTIICKISYKC-OH; disulfide 18-24), the Activity entry is “is not a substrate [-]”.

Take `CC(=O)O[C@H]1C(=O)[C@@]2(C)[C@H]([C@H](OC(=O)c3ccccc3)[C@]3(O)C[C@H](OC(=O)[C@H](O)[C@@H](NC(=O)c4ccccc4)c4ccccc4)C(C)=C1C3(C)C)[C@]1(OC(C)=O)CO[C@@H]1C[C@@H]2O` [PACLITAXEL]: the Activity result is “substrate [+]”.

As to H-FLGALFKALCKLL-OH, the Activity entry is “is not a substrate [-]”.

For the molecule H-FLGALFKALSKLL-OH, the Activity result was “is not a substrate [-]”.
